According to US8927535B2, “Cyclopropyl-fused-1,3-thiazepines as BACE1 and/or BACE2 inhibitors” (Hoffman-La Roche Inc., priority 2011, dated 2015):
pIC50: −log10 of the molar value.

Target: T1, BACE2 (Rattus norvegicus, UniProt Q6IE75)
T1 construct: endogenous cellular BACE2 in the Ins1e rat cell line; endogenous in cells; host or cells: INS-TMEM27 (INS1e-derived rat cell line with doxycycline-inducible full-length hTMEM27)
T1 sequence (Q6IE75 63-514): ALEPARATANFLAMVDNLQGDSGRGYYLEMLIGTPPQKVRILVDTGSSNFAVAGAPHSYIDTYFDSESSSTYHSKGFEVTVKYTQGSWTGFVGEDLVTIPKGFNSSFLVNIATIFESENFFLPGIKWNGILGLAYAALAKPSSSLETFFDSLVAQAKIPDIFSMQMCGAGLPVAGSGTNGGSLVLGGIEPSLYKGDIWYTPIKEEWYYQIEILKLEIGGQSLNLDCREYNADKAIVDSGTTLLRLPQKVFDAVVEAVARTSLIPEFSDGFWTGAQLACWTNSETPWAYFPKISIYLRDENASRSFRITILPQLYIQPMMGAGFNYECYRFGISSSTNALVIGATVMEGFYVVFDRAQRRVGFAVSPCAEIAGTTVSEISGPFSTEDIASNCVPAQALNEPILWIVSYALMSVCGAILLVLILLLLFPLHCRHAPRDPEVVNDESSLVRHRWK
Experiment: Assay for BACE inhibition by measuring cellular TMEM27 cleavage
Assay type: cell-based
Conditions: INS-TMEM27 (INS1e-derived) cells, endogenous BACE2, shed human TMEM27 in medium by ELISA
Excerpt: Assay for BACE Inhibition by Measuring Cellular TMEM27 Cleavage:
The assay uses the principle of inhibition of human TMEM27 cleavage by endogenous cellular BACE2 in the Ins1e rat cell line and shedding from the cell surface into the culture medium, followed by detection in an ELISA assay. Inhibition of BACE2 prevents the cleavage and shedding in a dose-dependent manner.
The stable cell line “INS-TMEM27” represents an INS1e-derived cell line with inducible expression (using the TetOn system) of full-length hTMEM27 in a doxycycline-dependent manner.
INS-TMEM27 cells are seeded in 96-well plates. After 2 days in culture, BACE2 inhibitor is added in a range of concentrations as required by the assay and after a further two hours, doxycycline is added to a final concentration of 500 ng/ml. The cells are incubated for a further 46 hours and the supernatant harvested for detection of shed TMEM27.
An ELISA assay (using a pair of mouse anti-human-TMEM27 antibodies, raised against the extracellular domain of TMEM27) is used for detection of TMEM27 in the culture medium. An EC50 for BACE2 inhibition is calculated using the ELISA readout for each inhibitor concentration with standard curve-fitting software such as XLFit for the Excel spreadsheet program.

`NC1=N[C@@]2(c3cc(NC(=O)c4ccc(Cl)cn4)ccc3Cl)C[C@H]2CCS1` (racemic) [Example 4, N-(3-((1SR,7SR)-3-amino-4-thia-2-azabicyclo[5.1.0]oct-2-en-1-yl)-4-chlorophenyl)-5-chloropicolinamide] showed a pIC50 of 6.16.
